In patent publication US12144874B2, “Synthesis and composition of photodynamic therapeutic agents for the targeted treatment of cancer” (On Target Laboratories, LLC, priority 2015, dated 2024):
Where two headings read alike, the source gives them in different places.

Columns and labels:
KB cells [1] = experiment: cells; conditions: Homo sapiens
[2] = dogs; cited from earlier work
[3] = system: folate receptor positive cancer; conditions: cited from earlier work
[4] = rats; cited from earlier work
[5] = Activation wavelength of non-targeted PDT agents; type: physicochemical; conditions: Table 1
KB cells [6] = system: KB cells
KB tumors = experiment: Time dependent whole body fluorescence imaging of KB tumor bearing nude mice (IVIS imager); type: in vivo
Source text: FIG. 3 depicts an overlay of half body (top raw) and whole body (bottom raw) fluorescence image over white light images after adjusting the threshold. KB tumor bearing mice injected with 10 nmol of BPheid-a (1) and image with IVIS imager (ex=745 nm, em=ICG, exposure time=1 s) at different time intervals.
FIG. 13 depicts an overlay of whole body fluorescence image over white light images after adjusting the threshold. KB tumor bearing mice injected with 10 nmol of 65a and image with IVIS imager (ex=745 nm, em=ICG, exposure time=1 s) at different time intervals.
In the following examples, the in vivo efficacy of the compounds is determined using KB tumor cell xenograft in nude mice. In these studies, KB cells were implanted subcutaneously and growth of the tumors was monitored. For time dependent whole body imaging, once tumors become 250-350 mm^3, the compounds were injected via tail vein and accumulation of the PS in the tumor was monitored (over 48 hours) using fluorescence imaging using IVIS imager. Moreover, once tumors grow to […], the compounds were injected via tail vein. Three hours (3 h) after injecting with the compound, tumor was treated with laser beam (75 mW/cm^2, 137 J/cm^2, exposure diameter=7.5-8 mm) for […]. In vivo efficacy of BPheid-a was evaluated by monitoring reduction of tumor volume.

subcutaneous KB tumor [7] = experiment: In vivo PDT efficacy on growth of subcutaneous KB tumor xenograft in nude mice
Description: The growth of the tumor was monitored (images were taken) and tumor volume was measured using caliper.
In the following examples, the in vivo efficacy of the compounds is determined using KB tumor cell xenograft in nude mice. In these studies, KB cells were implanted subcutaneously and growth of the tumors was monitored. […] Moreover, once tumors grow to […], the compounds were injected via tail vein. […] In vivo efficacy of BPheid-a was evaluated by monitoring reduction of tumor volume.
KB cells that overexpressed folate receptor were implanted subcutaneously into female nude mice and allowed to grow to ˜50 mm^3 prior to initiation of treatment with 50 nmol of BPheid-a (1). […] In vivo efficacy of BPheid-a was evaluated by monitoring reduction of tumor volume.

subcutaneous KB tumor [8] = experiment: as above; conditions: 25 nmol dose, laser 75 mW/cm^2, 137 J/cm^2, 38 min, 3 h after injection
[9] = Table 1, non-targeted PDT agents, free drugs in DMSO, 2 h incubation, laser 6 mW/cm^2, 12 J/cm^2, 32 min, then 24 h
[10] = 10 nmol injected, KB tumor bearing nude mice
[11] = 50 nmol dose, laser 75 mW/cm^2, 137 J/cm^2, 38 min, 3 h after injection

CC[C@H]1c2cc3[nH]c(c(CC(=O)OC)c4nc(cc5[nH]c(cc(n2)[C@@H]1C)c(C(C)=O)c5C)[C@@H](C)[C@@H]4CCC(=O)NCCC[C@H](NC(=O)CC[P+](c1ccccc1)(c1ccccc1)c1ccccc1)C(=O)OC(C)(C)C)c(C(=O)N[N+](C)(C)C)c3C [Compound 15]
EC50 (KB cells [1]): 0.0476 µM

OTL38
Toxicity [2]: no toxicity | Malignant lesions removed with the aid of OTL38 versus without it ([3]; clinical trial, image-guided surgery): approximately 5 × | Tumor cells removed by OTL38-guided resection ([3]; image-guided resection): approximately 95% | Toxicity [4]: no toxicity

tookad soluble [Compound 4, reference compound]
Activation Wavelength [5]: 750 nm | EC50 (KB cells [6]; [9]): 7.76 µM

CC[C@H]1c2cc3[nH]c4c(c3C)C(=O)[C@H](C(=O)OC)c4c3nc(cc4[nH]c(cc(n2)[C@@H]1C)c(C(C)=O)c4C)[C@@H](C)[C@@H]3CCC(=O)O [Compound 1, Bacteriopheophorbide-a, reference compound]
Activation Wavelength [5]: 750 nm | Fluorescence in the tumor (level or comparison with other conjugates) (KB tumors; [10]): very low | Tumor specificity / uptake in other tissues (whole body images) (KB tumors; [10]): nonspecific uptake of BPheid-a in the skin | Time to localize / accumulate in the tumor after administration (KB tumors; 10 nmol injected, KB tumor bearing nude mice, fluorescence imaging): ~24 h | Effect on growth of subcutaneous KB tumor, in words (subcutaneous KB tumor [7]; [11]): some effect | KB tumor doubling time after treatment (subcutaneous KB tumor [7]; 50 nmol, laser 75 mW/cm^2, 137 J/cm^2, 38 min, 3 h after injection): < 1 week | Tumor volume reached by the end of the two week treatment period (subcutaneous KB tumor [7]; 50 nmol, laser 38 min 3 h after injection): > 600 mm^3 | EC50 (KB cells [6]; [9]): 0.745 µM | EC50 (KB cells [6]; Table 2, mitochondrial-targeted modified PDT agents, free drugs in DMSO, 2 h incubation, laser 32 min, then 24 h): 0.745 µM | IC50 (KB cells [6]; Table 3, nucleus-targeted modified PDT agents, free drugs in DMSO, 2 h incubation, laser 32 min, then 24 h): 0.745 µM | EC50 (KB cells [6]; Table 7, folate-targeted releasable BPheid-a conjugates, different soluble linkers): 0.745 µM | EC50 (KB cells [6]; Table 9, folate conjugates releasing cationic BPheid-a analogues): 0.745 µM | EC50 (KB cells [6]; Table 11, folate conjugates releasing anionic BPheid-a analogues): 0.745 µM

CC[C@H]1c2cc3[n-]c4c(c3C)C(=O)[C@H](C(=O)OC)c4c3nc(cc4[n-]c(cc(n2)[C@@H]1C)c(C(C)=O)c4C)[C@@H](C)[C@@H]3CCC(=O)O.[Pd+2] [Compound 2, Tookad, reference compound]
Activation Wavelength [5]: 760 nm | EC50 (KB cells [6]; [9]): 10.4 µM

Photofrin [Compound 7]
Activation Wavelength [5]: 630 nm

Visudyne [Compound 5, reference compound]
Activation Wavelength [5]: 689 nm | EC50 (KB cells [6]; [9]): 0.838 µM

CC[C@H]1c2cc3[nH]c4c(c3C)C(=O)C(C(=O)OC)c4c3nc(cc4[nH]c(cc(n2)[C@@H]1C)c(C(C)=O)c4C)[C@@H](C)[C@@H]3CCC(=O)NC(Cc1ccc(N(CCCl)CCCl)cc1)C(=O)NNC(=O)OCCSSC[C@H](NC(=O)[C@H](CC(=O)NCCS(=O)(=O)O)NC(=O)CC[C@H](NC(=O)c1ccc(NCc2cnc3nc(N)[nH]c(=O)c3n2)cc1)C(=O)O)C(=O)O (some centres unmarked) [Compound 112a]
Fluorescence in the tumor (level or comparison with other conjugates) (KB tumors; [10]): more highly fluorescent | Tumor specificity / uptake in other tissues (whole body images) (KB tumors; [10]): highly specific for FR-positive tumors | Localization in whole body images (KB tumors; 10 nmol, image 2 h after administering): localized mainly in the tumor | EC50 (KB cells [6]; Table 12, folate-targeted releasable BPheid-a, miscellaneous): 0.0005 µM

CC[C@H]1c2cc3[nH]c4c(c3C)C(=O)C(C(=O)OC)c4c3nc(cc4[nH]c(cc(n2)[C@@H]1C)c(C(C)=O)c4C)[C@@H](C)[C@@H]3CCC(=O)NNC(=O)OCCSSC[C@H](NC(=O)[C@H](CC(=O)NCCS(=O)(=O)O)NC(=O)CC[C@H](NC(=O)c1ccc(NCc2cnc3nc(N)[nH]c(=O)c3n2)cc1)C(=O)O)C(=O)O (some centres unmarked) [Compound 65a]
Effect on growth of subcutaneous KB tumor, in words (subcutaneous KB tumor [7]; [11]): completely cured with no recurrence during the monitored time (13 weeks) | Effect on growth of subcutaneous KB tumor, in words (subcutaneous KB tumor [7]; 50 and 25 nmol doses, laser 38 min 3 h after injection): tumor regression at both doses (50 and 25 nmol) | Effect on growth of subcutaneous KB tumor, in words (subcutaneous KB tumor [8]): completely cured with no recurrence during the monitored time (4 weeks)

CC[C@H]1c2cc3[nH]c4c(c3C)C(=O)C(C(=O)OC)c4c3nc(cc4[nH]c(cc(n2)[C@@H]1C)c(C(C)=O)c4C)[C@@H](C)[C@@H]3CCC(=O)NC(CC(=O)NC1C(O)OC(CO)C(O)C1O)C(=O)NNC(=O)OCCSSC[C@H](NC(=O)[C@H](CC(=O)NCCS(=O)(=O)O)NC(=O)CC[C@H](NC(=O)c1ccc(NCc2cnc3nc(N)[nH]c(=O)c3n2)cc1)C(=O)O)C(=O)O (some centres unmarked) [Compound 92a]
Effect on growth of subcutaneous KB tumor, in words (subcutaneous KB tumor [7]; [11]): completely reduced the tumor | Activity class on KB cancer cells in culture (active / highly active) (KB cells [6]): active | EC50 (KB cells [6]; 2 h): 0.0328 µM
